Columns and labels:
Experiment in all cases: relative viability (nuclei count vs DMSO), 5 days (fraction); higher = more cells survive
[1] = compound: C=C(c1ccc(C(=O)O)cc1)c1cc2c(cc1C)C(C)(C)CCC2(C)C [Bexarotene] + N=C(N)NC(=N)NCCc1ccccc1 [Phenformin] (partner 250 µM)
Outline: (§1)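 Relative viability equals treated-well nuclei counts divided by vehicle-well nuclei counts. Counts came from 4× images of lung cancer cell lines grown in 1536-well plates for 5 days after pin-tool dosing on the day after seeding. Dosing used one drug alone or a fixed anchor-drug dose plus five library-drug doses (not always all listed) in √10 steps, and values are medians of duplicate plates.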

[2] = compound: C=C(c1ccc(C(=O)O)cc1)c1cc2c(cc1C)C(C)(C)CCC2(C)C [Bexarotene] + CC(=O)c1c(C)c2cnc(Nc3ccc(N4CCNCC4)cn3)nc2n(C2CCCC2)c1=O [Palbociclib] (partner 0.5 µM)
Outline: as §1

[3] = compound: C=C(c1ccc(C(=O)O)cc1)c1cc2c(cc1C)C(C)(C)CCC2(C)C [Bexarotene] + CS(=O)(=O)N1CCN(Cc2cc3nc(-c4cccc5[nH]ncc45)nc(N4CCOCC4)c3s2)CC1 [Pictilisib] (partner 1 µM)
Outline: as §1

[4] = compound: C=C(c1ccc(C(=O)O)cc1)c1cc2c(cc1C)C(C)(C)CCC2(C)C [Bexarotene] + Nc1ncn([C@H]2C[C@H](O)[C@@H](CO)O2)c(=O)n1 [Decitabine] (partner 2 µM)
Outline: as §1

| Cell Line | relative viability ([1]; first compound 0.08 µM) | relative viability ([1]; first compound 0.253 µM) | relative viability ([1]; first compound 0.8 µM) | relative viability ([1]; first compound 2.53 µM) | relative viability ([1]; first compound 8 µM) | relative viability ([2]; first compound 0.08 µM) | relative viability ([2]; first compound 0.253 µM) | relative viability ([2]; first compound 0.8 µM) | relative viability ([2]; first compound 2.53 µM) | relative viability ([2]; first compound 8 µM) | relative viability ([3]; first compound 0.08 µM) | relative viability ([3]; first compound 0.253 µM) | relative viability ([3]; first compound 0.8 µM) | relative viability ([3]; first compound 2.53 µM) | relative viability ([3]; first compound 8 µM) | relative viability ([4]; first compound 0.08 µM) | relative viability ([4]; first compound 0.253 µM) | relative viability ([4]; first compound 0.8 µM) | relative viability ([4]; first compound 2.53 µM) | relative viability ([4]; first compound 8 µM) |
| --- | --- | --- | --- | --- | --- | --- | --- | --- | --- | --- | --- | --- | --- | --- | --- | --- | --- | --- | --- | --- |
| H3255 | 0.391 | 0.336 | 0.382 | 0.419 | 0.416 | 0.333 | 0.335 | 0.316 | 0.344 | 0.346 | 0.574 | 0.504 | 0.607 | 0.493 | 0.528 | 0.923 | 0.695 | 0.587 | 0.507 | 0.562 |
| EPLC-272H | 0.304 | 0.27 | 0.313 | 0.3 | 0.373 | 0.313 | 0.358 | 0.312 | 0.314 | 0.354 | 0.373 | 0.308 | 0.33 | 0.298 | 0.352 | 0.414 | 0.36 | 0.353 | 0.368 | 0.414 |
| PC-3 [JPC-3] | 0.489 | 0.514 | 0.448 | 0.52 | 0.505 | 0.556 | 0.514 | 0.492 | 0.471 | 0.493 | 0.868 | 0.749 | 0.519 | 0.656 | 0.666 | 0.874 | 0.865 | 0.88 | 0.745 | 0.781 |
| NCI-H1793 | 0.51 | 0.386 | 0.36 | 0.37 | 0.358 | 0.31 | 0.318 | 0.284 | 0.264 | 0.327 | 0.52 | 0.547 | 0.508 | 0.316 | 0.431 | 0.54 | 0.434 | 0.563 | 0.469 | 0.328 |
| EKVX | 0.257 | 0.263 | 0.224 | 0.233 | 0.233 | 0.37 | 0.366 | 0.384 | 0.438 | 0.362 | 0.352 | 0.432 | 0.446 | 0.357 | 0.404 | 0.299 | 0.338 | 0.309 | 0.172 | 0.332 |
| ChaGo-K-1 | 0.563 | 0.496 | 0.539 | 0.533 | 0.536 | 1.09 | 0.983 | 0.99 | 0.967 | 1.01 | 0.902 | 0.679 | 0.875 |  | 0.801 | 0.57 | 0.512 | 0.509 | 0.489 | 0.497 |
| NCI-H23 | 0.854 | 0.759 | 0.694 | 0.763 | 0.712 | 0.554 | 0.567 | 0.571 | 0.555 | 0.543 | 0.623 | 0.489 | 0.44 | 0.516 | 0.52 | 0.351 | 0.322 | 0.346 | 0.298 | 0.329 |
| EMC-BAC-2 | 0.549 | 0.575 | 0.521 | 0.49 | 0.546 | 0.538 | 0.529 | 0.508 |  | 0.502 | 0.618 | 0.561 | 0.52 | 0.554 | 0.469 | 1.1 | 0.948 | 0.924 |  | 0.943 |
